# Source: article PMC13462928 (Nature Communications, 2026)
# Entries after “also recorded” stand apart in the source; their conditions may differ.
# How the values were obtained:
# [1] = biological target: NUDT5 and the respective E3 ligase (Homo sapiens, UniProt P40337+Q9UKK9); experiment: NanoBRET ternary complex formation assay NUDT5 and the respective E3 ligase (VHL or CRBN) in HEK293 cells; format: cell-based; details: Supplementary Table 2; for Ternary complex formation below 1 µM (4 h): HEK293, 4 h; for Ternary complex formation below 1 µM (20 h): HEK293, 20 h
# Protocol: (§1) NanoBRET ternary complex assays were performed following the manufacturer’s instructions (Promega). […] After 4 h or 20 h of incubation, a mix of substrate in assay medium was added to each well. Donor and acceptor signals were measured in a PHERAstar FSX or FS plate reader and analyzed by GraphPad Prism (v.9 or v.10). The acceptor/donor ratio was calculated, the no ligand background signal was subtracted, and multiplied by 1000 to yield mBRET units. Data were then normalized to DMSO.
# NUDT5 [2] = biological target: T1, NUDT5 (Homo sapiens, UniProt Q96SW2+Q9UKK9); experiment: Western blot NUDT5 degradation in HEK293 cells; format: cell-based; details: for Dmax: 20 h, read-out: apparent Dmax of NUDT5 degradation
# Protocol: (§2) Pellets were lysed on ice using RIPA buffer (25 mM Tris (pH 7.5), 150 mM NaCl, 1% Igepal, 1% SDS, 0.1% SDC, 1x protease inhibitor (Roche, cOmplete mini, 11836170001), 1x phosphatase (Thermo Scientific, Halt, 78429), 0.1% benzonase (Merck, E1014-5KU)), incubated for 15 min and then centrifuged for 20 min at 4 °C at maximum speed in a table-top centrifuge. […] Membranes were blocked with 6% milk in PBS-T for 1 h at RT, washed, and then incubated with primary antibody diluted in PBS-T supplemented with 0.1% NaN3 overnight at 4 °C. Membranes were incubated with fluorophore-conjugated secondary antibodies, Alexa Fluor 680 anti-rabbit IgG (Life Technologies, A21109), Alexa Fluor 750 anti-mouse IgG (Life Technologies, A21037) diluted 1:5000 in 2% milk PBS-T, washed and imaged with an Odyssey imager (Licor).
# NUDT5 [3] = biological target: T2, NUDT5 (Homo sapiens, UniProt Q9UKK9); experiment: Western blot NUDT5 degradation in HEK293 cells; format: cell-based; details: 20 h, Western blot, read-out: DC50 (half-maximal degradation concentration) of NUDT5
# Protocol: as §2
# HEK293 cells = experiment: Untargeted global proteomics of HEK293 cells; format: cell-based, human; details: 100 nM, 24 h; for total proteome analysis, downregulated proteins: 7135 quantified proteins
# Protocol: (§3) Proteomics samples were digested with trypsin using STrap columns following the manufacturer’s protocol (C02-micro, ProtiFi). […] Then, the cell pellets were collected and lysed in 5% SDS containing 1 μL/mL benzonase (E1014, Millipore) and subsequently short sonication to shear genomic DNA (1×2 s pulse, 20% amplitude, microtip, Sonics Vibra Cell). 50 μg protein from the total cell lysate or 80% of the elution fraction of the chemical pulldown were first reduced by 20 mM dithiothreitol (M02712, Fluorochem), and alkylated by 40 mM iodoacetamide (I1149, Sigma). Phosphoric acid and S-Trap protein binding buffer were added to the sample lysates. Then, the SDS lysate/S-Trap buffer were loaded into a S-Trap column (C02-micro-80, ProtiFi). 1 μg of trypsin (V5111, Promega) was used to digest each sample at 37 °C for 20 h. The samples were then eluted and dried by vacuum centrifugation. Peptide pellets were resuspended in mass spectrometry-grade water with 2% acetonitrile (85188, Thermo Scientific) and 0.1% trifluoroacetic acid (85183, Thermo Scientific). The samples were injected into Orbitrap Fusion Lumos Tribrid Mass Spectrometer (Thermo Scientific). Sample acquisition was performed as previously described.
# Raw data were searched against the human database (UP000005640, downloaded 08/21) using DIA-NN (v.1.8.1)[48] by enabling FASTA digest for library-free search and Deep learning-based spectra, RTs, and IMs prediction. Trypsin/P was selected for the in silico digestion of the provided FASTA file, allowing up to 2 missed cleavages. Fixed modifications included N-terminal methionine excision and cysteine carbamidomethylation. Variable modifications were methionine oxidation and N-terminal acetylation, with a maximum of one modification per precursor. Precursor FDR was kept at 1% and MBR enabled. The protein groups matrix was further analysed using Perseus (2.0.9.0)[49] or R studio (4.3.2). Potential contaminants were filtered against the top 300 most common Homo sapiens contaminants reported in CRAPome[50]. Proteins were removed if detected less than 70% across all runs. After column-wise normalisation by median subtraction, missing values were imputed by random numbers from a normal distribution (1.8 standard deviation, downshift width 0.3). Volcano plots were generated by calculating fold change and -log10(p-value) from an unpaired two-sided Student’s t-test.
# HAP1 cells [4] = experiment: Titration of NUDT5 degraders and controls against fixed 6-TG (2 µg/mL) in HAP1 cells, cell viability; format: cell-based, human; details: for concentration of maximal rescue of cell viability / rescue of 6-TG-induced toxicity: HAP1, 2 µg/mL 6-TG, 72 h
# Protocol: (§4) Cells were counted and adjusted to a density of 25,000 cells/mL in culture medium. […] Plates were sealed with breathable film and incubated at 37 °C with 5% CO₂ for 72 hours. Cell viability was assessed using the CellTiter-Glo Luminescent Cell Viability Assay, following the manufacturer’s protocol (Promega). Luminescence was measured using a PHERAstar FS or FSX plate reader, and data were analyzed using GraphPad Prism software (versions 9 or 10). Results were normalized to the vehicle control (DMSO).
# NUDT5 [5] = biological target: T1, NUDT5; experiment: Western blot NUDT5 degradation in HEK293 CRBN KO cells; format: cell-based; design: endogenous in cells; host or cells: HEK293 (CRBN KO); details: 100 nM, 20 h
# Protocol: as §2
# HAP1 cells [6] = experiment: Cell viability (CellTiter-Glo) and 6-TG assay in HAP1 WT cells; format: cell-based, human
# Protocol: (§5) HEK293, MCF7, A549 were cultured in DMEM + 10% FBS, HAP1 and HL-60 were cultured in IMDM + 10% FBS. All cell lines were maintained at 37 °C and 5% CO2.
# as §4
# HL-60 cells = experiment: Cell viability (CellTiter-Glo) 6-TG assay in HL-60 cells; format: cell-based, human
# Protocol: as §5, §4
# NUDT5 [7] = biological target: T2, NUDT5; experiment: NanoBRET NUDT5 target engagement (TE) assay in HEK293 cells; format: cell-based; design: expressed in transfected cells; host or cells: HEK293; details: for EC50: HEK293 cells, Supplementary Fig. 6B, read-out: NUDT5 NanoBRET target engagement EC50
# HAP1 NUDT5 KO cells = experiment: Cell viability (CellTiter-Glo) 6-TG assay in HAP1 NUDT5 KO cells; format: cell-based, human; details: Fig. 1A
# Protocol: as §5, §4
# HAP1 cell lines = experiment: TH1760/6-TG cell viability assay in HAP1 cell lines; format: cell-based, human
# Protocol: After 72 h incubation, cell viability was measured using the CellTiter-Glo assay (Promega). Signals were normalized to the control condition.
# NUDT5 and CRBN = biological target: T3, NUDT5 and CRBN (Homo sapiens, UniProt Q96SW2+Q9UKK9); experiment: NanoBRET ternary complex formation assay NanoLuc-NUDT5 / HaloTag-CRBN in HEK293 cells; format: cell-based; details: intact HEK293 cells
# T3 construct: expressed in transfected cells; host or cells: HEK293
# Protocol: as §1
# ZFP91 = biological target: T4, ZFP91 (Homo sapiens, UniProt Q96JP5); experiment: Western blot of ZFP91 levels in HEK293 and HAP1 cells; format: cell-based; details: 100 nM, 24 h
# T4 construct: endogenous in cells; host or cells: HEK293 and HAP1
# Protocol: as §2
# HAP1 cells [8] = experiment: Untargeted global proteomics of HAP1 cells; format: cell-based, human; details: 100 nM, 6 h and 24 h
# Protocol: as §3, with “Peptide pellets were resuspended in mass spectrometry-grade water with 2% acetonitrile (85188, Thermo Scientific) and 0.1% trifluoroacetic acid (85183, Thermo Scientific). The samples were injected into Orbitrap Fusion Lumos Tribrid Mass Spectrometer (Thermo Scientific). Sample acquisition was performed as previously described.” left out
# Raw data were searched against the human database (UP000005640, downloaded 08/21) using DIA-NN (v.1.8.1)[48] by enabling FASTA digest for library-free search and Deep learning-based spectra, RTs, and IMs prediction. […] The protein groups matrix was further analysed using Perseus (2.0.9.0)[49] or R studio (4.3.2). […] Proteins were removed if detected less than 70% across all runs. […]
# HAP1 cells [9] = experiment: Metabolomics with isotopically labeled formate/adenosine in HAP1 cells; format: cell-based, human; details: HAP1, 100 nM, 13C-D formate 1 mM, 15N adenosine 100 µM, 24 h
# Protocol: Experiments were performed in duplicates. Approximately 1.5 × 10^6 HAP1 wt and NUDT5 KO cells were seeded in IMDM (full) prior to treatment with isotopically labeled metabolites. […] After 24 h, plates were washed with PBS and replaced with IMDM containing dialysed FBS (Gibco). Cells were treated with 1 mM of isotopically labeled sodium formate (Eurisotop, CDLM-6203-0.25) or with 1 mM of isotopically labeled sodium and 100 µM isotopically labeled adenosine (Silantes, 125303601). After 24 h, 5 × 10^6 cells for each replicate was harvested, washed with PBS, immediately snap frozen and stored at −80 °C. Cell pellets were lysed with 150 µL ice-cold 80:20 MeOH:H2O, vortexed and sonicated for 5 minutes on ice. The extract was centrifuged for 10 minutes at 10,000 × g at 4 °C and the supernatant was collected in a glass insert vial. This procedure was repeated and the two supernatants were combined. Solvent was evaporated in a vacuum concentrator. Metabolites were reconstituted in 50 µL pure MeOH. A Vanquish UHPLC system (Thermo Scientific) coupled with an Orbitrap Q Exactive (Thermo Scientific) mass spectrometer was used for the LC-MS analysis. […] Quantification of target metabolites was performed by manually integrating the area under the curve, and data were plotted using GraphPad Prism v.10.
# NUDT5 [10] = biological target: T1, NUDT5; experiment: Western blot NUDT5 degradation in HAP1 cells; format: cell-based; design: endogenous in cells; host or cells: HAP1
# Protocol: as §2
# NUDT5 [11] = biological target: T2, NUDT5; experiment: Western blot NUDT5 degradation in HAP1 cells; format: cell-based; design: endogenous in cells; host or cells: HAP1; details: HAP1 cells, Western blot; read-out: DC50 (half-maximal degradation concentration) of NUDT5
# Protocol: as §2
# NUDT5 [12] = biological target: T1, NUDT5; experiment: Western blot NUDT5 degradation in A549 cells; format: cell-based; design: endogenous in cells; host or cells: HAP1, A549, MCF7; details: A549, MCF7 and HAP1, 100 nM, 20 h
# Protocol: as §2
Compound,Ternary complex formation below 1 µM (4 h) [1],Ternary complex formation below 1 µM (20 h) [1],Dmax (NUDT5 [2]; Western blot) [%],DC50 (NUDT5 [3]) [nM],effect on ZFP91 in global proteomics (HEK293 cells),"total proteome analysis, downregulated proteins (HEK293 cells)",concentration of maximal rescue of cell viability (HAP1 cells [4]) [nM],NUDT5 degradation in CRBN knockout cells (NUDT5 [5]),rescue of 6-TG-induced toxicity (HAP1 cells [4]),EC50 (NUDT5 [7]) [nM],also measured
Cn1c(=O)c2c(nc(N3CCN(C(=O)CCOCCOCCOCCOCCNc4cccc5c4C(=O)N(C4CCC(=O)NC4=O)C5=O)CC3)n2Cc2nnc(-c3ccc(Cl)c(Cl)c3)o2)n(C)c1=O (stereo not drawn) [ASM130],Yes,Yes,75,7,slight effect on the zinc finger protein ZFP91,NUDT5 as the most significantly downregulated protein,50 to 100,CRBN knockout (KO) prevents PROTAC-mediated degradation of NUDT5,,,
"Cn1c(=O)c2c(nc(N3CCNCC3)n2Cc2nnc(-c3ccc(Cl)c(Cl)c3)o2)n(C)c1=O [TH5427, reference compound]",,,,,,,,,failed to rescue cell viability; also recorded: no signiﬁcant eﬀect,3,ability to desensitize cells to 6-TG treatment (phenocopy NUDT5 KO) (HAP1 cells [6]): neither inhibitor was able to phenocopy the NUDT5 KO; ability to desensitize cells to 6-TG treatment (phenocopy NUDT5 KO) (HL-60 cells): neither inhibitor was able to phenocopy the NUDT5 KO
"Nc1nc2nc[nH]c2c(=S)[nH]1 [Compound 6-TG, 6-Thioguanine]",,,,,,,,,,,"increase in 6-TG IC50, NUDT5 KO versus NUDT5 WT (HAP1 NUDT5 KO cells): four-fold increase; difference in 6-TG sensitivity, NUDT5 KO versus WT (HAP1 cell lines; HAP1, fixed TH1760 50 µM, 72 h, Fig. 4D): 2.8 fold; IC50 (HAP1 cell lines; Homo sapiens, HAP1 WT cells, approximately): ~1000 nM"
Cn1c(=O)c2c(nc(N3CCN(C(=O)N4CCC(CN5CCN(c6ccc7c(c6)C(=O)N(C6CCC(=O)NC6=O)C7=O)CC5)CC4)CC3)n2Cc2nnc(-c3ccc(Cl)c(Cl)c3)o2)n(C)c1=O (stereo not drawn) [dNUDT5],,,,0.5,,,50 to 100,,most efficient compound in abrogating 6-TG-induced cell death,37,"ternary complex formation between NUDT5 and CRBN in cells (NUDT5 and CRBN): only dNUDT5 induced proficient ternary complex formation; mechanism of degradation (rescue by neddylation, proteasome, NUDT5 inhibitors and CRBN KO) (NUDT5 [2]): UPS-dependent; NUDT5 degradation (NUDT5 [2]; 100 nM, 6 h, Western blot, Supplementary Fig. 6A): induces degradation of NUDT5; ZFP91 levels (ZFP91): ZFP91 levels remained unchanged; also recorded: does not affect ZFP91 levels; global proteome analysis, downregulated proteins (HAP1 cells [8]): NUDT5 was the only significantly downregulated protein; de novo derived IMP (HAP1 cells [9]): apparent increase in de novo derived IMP; boost of cancer cell viability in presence of 6-TG compared to TH5427 and DMSO control (HAP1 cells [4]; peer review file): more than 8 fold; time course of NUDT5 degradation (NUDT5 [10]; 100 nM, up to 72 h): sustained degradation by dNUDT5 over a time course of 72 h; NUDT5 degradation (NUDT5 [10]; HAP1 cells, Western blot, Fig. 3B): induced robust degradation of endogenous NUDT5 protein; DC50 (NUDT5 [11]): 0.3 nM; NUDT5 downregulation across a panel of cell lines (NUDT5 [12]): robust and consistent NUDT5 downregulation; NUDT5 engagement in live cells (NUDT5 [7]; NanoBRET): engaged their cognate target NUDT5 in live cells"
Cn1c(=O)c2c(nc(N3CCN(C(=O)CCOCCOCCOCCNc4cccc5c4C(=O)N(C4CCC(=O)NC4=O)C5=O)CC3)n2Cc2nnc(-c3ccc(Cl)c(Cl)c3)o2)n(C)c1=O (stereo not drawn) [ASM127],Yes,Yes,71,12,slight effect on the zinc finger protein ZFP91,NUDT5 as the most significantly downregulated protein,50 to 100,CRBN knockout (KO) prevents PROTAC-mediated degradation of NUDT5,,,
